Source: ChEMBL document CHEMBL1143298, “Second generation 4-(4-methyl-1H-indol-5-ylamino)-2-phenylthieno[2,3-b]pyridine-5-carbonitrile PKCtheta inhibitors” (Bioorg Med Chem Lett, 2009)
Converted amounts (≈) assume the structure as drawn.

Key:
[1] = target: Tyrosine-protein kinase Lyn (Homo sapiens, UniProt P07948); assay: Inhibition of Lyn
[2] = target: Protein kinase C theta type (Homo sapiens, UniProt Q04759); assay: Inhibition of human full length PKCtheta
[3] = target: Protein kinase C delta type (Homo sapiens, UniProt Q05655); assay: Inhibition of human full length PKCdelta
Protein kinase C delta type, sequence (Q05655 whole entry): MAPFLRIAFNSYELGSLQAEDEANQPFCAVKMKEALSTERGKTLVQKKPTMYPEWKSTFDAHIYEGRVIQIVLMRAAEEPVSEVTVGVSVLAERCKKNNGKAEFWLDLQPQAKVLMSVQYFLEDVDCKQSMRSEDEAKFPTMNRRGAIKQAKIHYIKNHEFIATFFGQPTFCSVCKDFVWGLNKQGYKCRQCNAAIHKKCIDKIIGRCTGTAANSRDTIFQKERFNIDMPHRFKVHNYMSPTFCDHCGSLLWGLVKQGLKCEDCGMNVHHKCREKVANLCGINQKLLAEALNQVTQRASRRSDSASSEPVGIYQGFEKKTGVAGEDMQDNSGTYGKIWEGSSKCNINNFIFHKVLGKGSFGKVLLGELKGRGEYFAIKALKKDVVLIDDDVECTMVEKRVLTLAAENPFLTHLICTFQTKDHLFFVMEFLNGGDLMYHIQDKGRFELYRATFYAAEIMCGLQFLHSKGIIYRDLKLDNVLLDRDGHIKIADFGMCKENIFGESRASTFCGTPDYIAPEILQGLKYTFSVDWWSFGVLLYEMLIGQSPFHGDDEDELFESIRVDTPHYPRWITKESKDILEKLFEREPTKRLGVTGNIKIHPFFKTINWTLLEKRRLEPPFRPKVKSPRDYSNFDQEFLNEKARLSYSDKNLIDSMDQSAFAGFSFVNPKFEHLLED

Homo sapiens = species on record: Homo sapiens; assay: Selectivity ratio of IC50 for human full length PKCdelta to IC50 for human full length PKCtheta
[4] = target: Protein kinase C beta type (Homo sapiens, UniProt P05771); assay: Inhibition of human full length PKCbeta
Protein kinase C beta type, sequence (P05771 whole entry): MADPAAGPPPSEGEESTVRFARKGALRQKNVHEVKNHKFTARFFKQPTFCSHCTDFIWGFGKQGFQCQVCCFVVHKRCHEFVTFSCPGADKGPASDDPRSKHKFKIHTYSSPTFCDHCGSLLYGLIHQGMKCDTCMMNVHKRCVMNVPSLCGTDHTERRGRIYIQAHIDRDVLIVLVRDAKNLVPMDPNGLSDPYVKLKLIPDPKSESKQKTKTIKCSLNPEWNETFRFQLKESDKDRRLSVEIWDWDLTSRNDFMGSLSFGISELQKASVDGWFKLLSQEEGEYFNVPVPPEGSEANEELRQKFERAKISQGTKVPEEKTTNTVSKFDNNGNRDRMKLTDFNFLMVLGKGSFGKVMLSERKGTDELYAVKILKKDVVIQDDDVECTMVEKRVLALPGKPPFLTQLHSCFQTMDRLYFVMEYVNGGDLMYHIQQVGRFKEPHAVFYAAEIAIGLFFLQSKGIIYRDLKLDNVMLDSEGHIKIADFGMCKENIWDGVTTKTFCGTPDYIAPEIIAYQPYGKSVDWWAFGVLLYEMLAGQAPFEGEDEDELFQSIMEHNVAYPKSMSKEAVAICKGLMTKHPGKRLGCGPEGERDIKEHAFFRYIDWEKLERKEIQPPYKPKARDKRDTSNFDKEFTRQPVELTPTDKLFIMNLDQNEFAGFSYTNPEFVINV

[5] = target: Protein kinase C eta type (Homo sapiens, UniProt P24723); assay: Inhibition of human full length PKCeta
Protein kinase C eta type, sequence (P24723 whole entry): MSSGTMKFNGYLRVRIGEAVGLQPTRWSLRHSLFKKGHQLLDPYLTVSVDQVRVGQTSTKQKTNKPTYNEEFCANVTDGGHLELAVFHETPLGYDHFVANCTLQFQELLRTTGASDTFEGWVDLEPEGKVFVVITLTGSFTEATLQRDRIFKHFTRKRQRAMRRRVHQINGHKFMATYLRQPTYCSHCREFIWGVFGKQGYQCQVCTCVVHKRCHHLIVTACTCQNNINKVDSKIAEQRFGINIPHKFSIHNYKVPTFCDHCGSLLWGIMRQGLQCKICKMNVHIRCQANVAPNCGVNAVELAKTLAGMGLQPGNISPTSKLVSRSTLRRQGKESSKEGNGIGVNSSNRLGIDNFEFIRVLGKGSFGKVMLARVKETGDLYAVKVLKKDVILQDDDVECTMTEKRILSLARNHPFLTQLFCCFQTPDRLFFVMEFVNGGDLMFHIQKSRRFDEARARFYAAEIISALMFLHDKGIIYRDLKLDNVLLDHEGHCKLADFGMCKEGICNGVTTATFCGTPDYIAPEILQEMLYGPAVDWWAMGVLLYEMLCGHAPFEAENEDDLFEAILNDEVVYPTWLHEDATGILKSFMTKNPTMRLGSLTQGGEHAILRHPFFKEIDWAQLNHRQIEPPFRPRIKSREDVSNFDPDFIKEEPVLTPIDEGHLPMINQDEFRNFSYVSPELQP

[6] = target: T1, Protein kinase C epsilon type (Homo sapiens, UniProt Q02156); assay: Inhibition of human full length PKCepsilon
T1 sequence (Q02156 whole entry): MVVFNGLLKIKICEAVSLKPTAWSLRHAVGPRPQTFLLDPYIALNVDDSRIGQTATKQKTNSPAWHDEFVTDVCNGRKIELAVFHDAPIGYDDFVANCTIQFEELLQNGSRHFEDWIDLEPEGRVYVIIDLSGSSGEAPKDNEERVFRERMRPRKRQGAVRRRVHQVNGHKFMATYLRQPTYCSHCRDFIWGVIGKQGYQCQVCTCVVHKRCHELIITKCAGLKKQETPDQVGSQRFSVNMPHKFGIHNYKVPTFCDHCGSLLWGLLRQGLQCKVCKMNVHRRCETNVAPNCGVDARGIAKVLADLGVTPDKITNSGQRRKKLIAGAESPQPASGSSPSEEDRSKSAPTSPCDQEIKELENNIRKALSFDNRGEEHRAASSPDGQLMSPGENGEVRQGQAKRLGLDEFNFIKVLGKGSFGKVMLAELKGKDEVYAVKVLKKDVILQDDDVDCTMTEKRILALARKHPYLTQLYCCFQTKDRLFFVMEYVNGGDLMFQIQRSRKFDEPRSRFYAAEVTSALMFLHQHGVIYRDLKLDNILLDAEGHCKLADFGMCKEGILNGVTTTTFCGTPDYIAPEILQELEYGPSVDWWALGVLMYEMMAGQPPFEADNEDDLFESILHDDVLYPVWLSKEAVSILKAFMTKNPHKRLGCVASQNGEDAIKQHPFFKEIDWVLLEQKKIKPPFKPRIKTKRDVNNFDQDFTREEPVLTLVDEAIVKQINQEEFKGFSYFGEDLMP

[7] = target: Proto-oncogene tyrosine-protein kinase Src (Homo sapiens, UniProt P12931); assay: Inhibition of Src
[8] = target: Tyrosine-protein kinase HCK (Homo sapiens, UniProt P08631); assay: Inhibition of Hck
Tyrosine-protein kinase HCK, sequence (P08631 whole entry): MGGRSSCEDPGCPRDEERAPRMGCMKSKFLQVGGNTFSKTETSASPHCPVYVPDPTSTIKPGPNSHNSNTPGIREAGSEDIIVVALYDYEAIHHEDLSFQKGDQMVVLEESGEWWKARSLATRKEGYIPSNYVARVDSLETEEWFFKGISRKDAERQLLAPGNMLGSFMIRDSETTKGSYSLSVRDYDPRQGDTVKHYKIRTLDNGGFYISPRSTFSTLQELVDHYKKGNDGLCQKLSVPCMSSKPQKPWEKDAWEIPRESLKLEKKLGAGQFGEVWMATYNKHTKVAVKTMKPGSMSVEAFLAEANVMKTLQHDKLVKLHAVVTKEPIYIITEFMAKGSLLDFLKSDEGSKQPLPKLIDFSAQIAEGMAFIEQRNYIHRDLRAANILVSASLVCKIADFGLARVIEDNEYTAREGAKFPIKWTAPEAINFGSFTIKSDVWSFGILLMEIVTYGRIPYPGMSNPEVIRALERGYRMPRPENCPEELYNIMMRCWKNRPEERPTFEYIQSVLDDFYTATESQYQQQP

[9] = target: Tyrosine-protein kinase Fyn (Homo sapiens, UniProt P06241); assay: Inhibition of Fyn
Tyrosine-protein kinase Fyn, sequence (P06241 whole entry): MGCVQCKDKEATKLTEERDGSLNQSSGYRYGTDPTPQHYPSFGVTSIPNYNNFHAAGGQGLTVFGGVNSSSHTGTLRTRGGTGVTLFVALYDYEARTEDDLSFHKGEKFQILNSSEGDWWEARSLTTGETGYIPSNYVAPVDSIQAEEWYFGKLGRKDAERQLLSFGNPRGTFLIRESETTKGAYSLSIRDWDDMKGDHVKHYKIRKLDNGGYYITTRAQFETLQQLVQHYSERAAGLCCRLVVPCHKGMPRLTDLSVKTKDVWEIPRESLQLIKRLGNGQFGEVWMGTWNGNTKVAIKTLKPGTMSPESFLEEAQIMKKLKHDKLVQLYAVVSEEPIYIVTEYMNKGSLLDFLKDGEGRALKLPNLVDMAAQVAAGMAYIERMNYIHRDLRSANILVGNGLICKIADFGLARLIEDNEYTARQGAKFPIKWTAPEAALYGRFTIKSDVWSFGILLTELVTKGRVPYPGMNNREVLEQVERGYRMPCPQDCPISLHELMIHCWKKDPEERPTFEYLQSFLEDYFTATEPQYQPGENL

[10] = Inhibition of VEGFR
[11] = Inhibition of PDGFR
[12] = target: MAP kinase-activated protein kinase 2 (Homo sapiens, UniProt P49137); assay: Inhibition of MK2
MAP kinase-activated protein kinase 2, sequence (P49137 whole entry): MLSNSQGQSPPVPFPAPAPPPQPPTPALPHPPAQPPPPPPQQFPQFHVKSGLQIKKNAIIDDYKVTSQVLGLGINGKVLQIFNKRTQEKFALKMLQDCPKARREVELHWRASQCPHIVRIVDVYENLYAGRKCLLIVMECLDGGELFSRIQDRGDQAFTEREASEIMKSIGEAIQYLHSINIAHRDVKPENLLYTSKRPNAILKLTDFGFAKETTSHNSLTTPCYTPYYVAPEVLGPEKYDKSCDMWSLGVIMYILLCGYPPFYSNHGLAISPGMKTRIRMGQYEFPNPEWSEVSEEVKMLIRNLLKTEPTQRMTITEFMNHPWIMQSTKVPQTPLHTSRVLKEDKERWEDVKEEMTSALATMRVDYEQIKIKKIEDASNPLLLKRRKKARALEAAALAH

[13] = Inhibition of p38
[14] = Membrane permeability by PAMPA; type: ADME; conditions: read-out: permeability
[15] = Solubility at pH 7.4; type: physicochemical; conditions: buffer
[16] = Metabolic stability in mouse liver microsomes; type: ADME, Microsome
[17] = Metabolic stability in rat liver microsomes; type: ADME, Microsome
[18] = Metabolic stability in human liver microsomes; type: ADME, Microsome
[19] = target: Tyrosine-protein kinase Lck (Homo sapiens, UniProt P06239)

Tyrosine-protein kinase Lyn, sequence (P07948 whole entry): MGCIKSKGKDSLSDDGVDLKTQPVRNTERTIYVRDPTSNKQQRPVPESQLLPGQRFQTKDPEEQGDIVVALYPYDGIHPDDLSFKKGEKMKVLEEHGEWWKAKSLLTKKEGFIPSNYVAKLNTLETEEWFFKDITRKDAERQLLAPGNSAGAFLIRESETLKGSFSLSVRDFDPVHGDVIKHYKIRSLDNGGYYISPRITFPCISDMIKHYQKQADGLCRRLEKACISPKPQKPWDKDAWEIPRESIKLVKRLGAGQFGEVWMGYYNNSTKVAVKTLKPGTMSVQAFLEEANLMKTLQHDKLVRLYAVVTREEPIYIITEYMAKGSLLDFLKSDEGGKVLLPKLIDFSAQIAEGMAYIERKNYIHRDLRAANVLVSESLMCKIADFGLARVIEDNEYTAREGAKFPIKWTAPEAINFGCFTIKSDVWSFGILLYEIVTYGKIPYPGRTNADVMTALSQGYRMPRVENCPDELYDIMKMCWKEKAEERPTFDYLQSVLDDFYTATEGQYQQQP
Protein kinase C theta type, sequence (Q04759 whole entry): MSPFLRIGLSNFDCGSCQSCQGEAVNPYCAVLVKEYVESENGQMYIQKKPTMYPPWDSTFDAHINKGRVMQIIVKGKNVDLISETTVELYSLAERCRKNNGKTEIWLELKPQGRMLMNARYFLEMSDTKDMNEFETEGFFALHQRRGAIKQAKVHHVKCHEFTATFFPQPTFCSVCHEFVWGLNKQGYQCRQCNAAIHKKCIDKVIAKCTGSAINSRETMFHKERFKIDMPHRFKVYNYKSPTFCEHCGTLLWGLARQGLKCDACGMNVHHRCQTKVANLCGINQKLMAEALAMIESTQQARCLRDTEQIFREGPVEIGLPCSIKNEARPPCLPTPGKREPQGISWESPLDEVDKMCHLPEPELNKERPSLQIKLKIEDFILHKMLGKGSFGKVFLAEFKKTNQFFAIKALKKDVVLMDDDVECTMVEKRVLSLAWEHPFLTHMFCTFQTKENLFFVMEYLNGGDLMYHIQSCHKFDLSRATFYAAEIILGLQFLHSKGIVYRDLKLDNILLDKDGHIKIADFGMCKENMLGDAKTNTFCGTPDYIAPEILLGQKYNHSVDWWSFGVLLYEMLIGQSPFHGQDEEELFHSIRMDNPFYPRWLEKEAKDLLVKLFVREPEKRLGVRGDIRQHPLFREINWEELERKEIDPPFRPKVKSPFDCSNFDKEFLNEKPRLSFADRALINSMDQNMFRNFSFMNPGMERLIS

Row | IC50 [1] | IC50 [2] | IC50 [3] | Ratio IC50 (Homo sapiens) | SMILES | further results
1 | 2200 nM | 84 nM | 170 nM |  | Cc1c(Nc2c(C#N)cnc3sc(-c4cncc(CN(C)C)c4)cc23)ccc2[nH]ccc12 | 
2 | 74 nM | 9.2 nM | 82 nM | 9 | CCOc1ccc(CN(C)C)cc1-c1cc2c(Nc3ccc4[nH]ccc4c3C)c(C#N)cnc2s1 | 
3 | 37000 nM |  | 380 nM |  | Cc1c(Nc2c(C#N)cnc3sc(-c4ccccc4CN(C)C)cc23)ccc2[nH]ccc12 | 
4 | 100 nM |  | 88 nM |  | Cc1c(Nc2c(C#N)cnc3sc(-c4ccc(CN(C)C)cc4)cc23)ccc2[nH]ccc12 | 
5 | 520 nM |  |  | 4 | Cc1c(Nc2c(C#N)cnc3sc(-c4cccc(CN(C)C)c4)cc23)ccc2[nH]ccc12 | 
6 | 13000 nM |  | 130 nM |  | COc1ccc(CN(C)C)c(-c2cc3c(Nc4ccc5[nH]ccc5c4C)c(C#N)cnc3s2)c1 | IC50 [4]: 22000 nM; IC50 [5]: 360 nM; IC50 [6]: 95 nM; IC50 [7]: > 5000 nM; IC50 [8]: > 5000 nM; IC50 [9]: > 5000 nM; IC50 [10]: > 5000 nM; IC50 [11]: > 5000 nM; IC50 [12]: > 5000 nM; IC50 [13]: > 5000 nM; Papp [14]: 1.04 ×10⁻⁶ cm/s; solubility [15]: 12 µg/mL (≈ 25.7 µM); half-life [16]: < 10 min; half-life [17]: < 10 min; half-life [18]: < 10 min
7 | 410 nM |  | 51 nM |  | Cc1c(Nc2c(C#N)cnc3sc(-c4csc(CN(C)C)c4)cc23)ccc2[nH]ccc12 | 
8 | 310 nM | 23 nM | 250 nM | 10 | COc1ccccc1-c1cc2c(Nc3ccc4[nH]ccc4c3C)c(C#N)cnc2s1 | 
9 |  | 52 nM |  |  | N#Cc1cnc2sc(-c3ccccc3)cc2c1Nc1ccc2[nH]ccc2c1 | 
10 | 230 nM |  | 410 nM | 4 | Cc1ccc(CN(C)C)cc1-c1cc2c(Nc3ccc4[nH]ccc4c3C)c(C#N)cnc2s1 | 
11 | 1700 nM |  | 27 nM | 2 | COc1c(CN(C)C)cccc1-c1cc2c(Nc3ccc4[nH]ccc4c3C)c(C#N)cnc2s1 | 

Row | SMILES | IC50 [1] | IC50 [2] | IC50 [3] | Ratio IC50 (Homo sapiens) | further results
12 | COc1ccc(CN(C)C)cc1-c1cc2c(Nc3ccc4[nH]ccc4c3C)c(C#N)cnc2s1 | 23 nM | 8.7 nM | 24 nM |  | IC50 [19]: 6 nM
